Consider 16 molecules from patent US20170073337A1, “DIHYDROTHIAZINE AND DIHYDROOXAZINE DERIVATIVES HAVING BACE1 INHIBITORY ACTIVITY” (Shionogi & Co., Ltd., priority 2014, published 2017).

Data set [1] is described as follows: Brain distribution studies. The format is in vivo. Particulars: rat, 30 minutes later, area ratio brain/plasma; for Kp at 0.5 h: brain / plasma, iv, 0.5 mg/mL/kg. As for the experimental part: Compound of the present invention was intravenously administered to a rat at 0.5 mg/mL/kg dosage. 30 minutes later, all blood was drawn from the abdominal aorta under isoflurane anesthesia for death from exsanguination. […] The obtained blood was used as plasma after centrifuging. The control plasma was added to the brain sample at 1:1. The control brain homogenate was added to the plasma sample at 1:1. Each sample was measured using LC/MS/MS. The obtained area ratio (a brain/plasma) was used for the brain Kp value.

Data set [2] deals with T1, P-gp (MDR1 expressing LLC-PK1 cells) (Homo sapiens, UniProt P08183).
T1 construct: host or cells: LLC-PK1
T1 sequence (P08183 whole entry): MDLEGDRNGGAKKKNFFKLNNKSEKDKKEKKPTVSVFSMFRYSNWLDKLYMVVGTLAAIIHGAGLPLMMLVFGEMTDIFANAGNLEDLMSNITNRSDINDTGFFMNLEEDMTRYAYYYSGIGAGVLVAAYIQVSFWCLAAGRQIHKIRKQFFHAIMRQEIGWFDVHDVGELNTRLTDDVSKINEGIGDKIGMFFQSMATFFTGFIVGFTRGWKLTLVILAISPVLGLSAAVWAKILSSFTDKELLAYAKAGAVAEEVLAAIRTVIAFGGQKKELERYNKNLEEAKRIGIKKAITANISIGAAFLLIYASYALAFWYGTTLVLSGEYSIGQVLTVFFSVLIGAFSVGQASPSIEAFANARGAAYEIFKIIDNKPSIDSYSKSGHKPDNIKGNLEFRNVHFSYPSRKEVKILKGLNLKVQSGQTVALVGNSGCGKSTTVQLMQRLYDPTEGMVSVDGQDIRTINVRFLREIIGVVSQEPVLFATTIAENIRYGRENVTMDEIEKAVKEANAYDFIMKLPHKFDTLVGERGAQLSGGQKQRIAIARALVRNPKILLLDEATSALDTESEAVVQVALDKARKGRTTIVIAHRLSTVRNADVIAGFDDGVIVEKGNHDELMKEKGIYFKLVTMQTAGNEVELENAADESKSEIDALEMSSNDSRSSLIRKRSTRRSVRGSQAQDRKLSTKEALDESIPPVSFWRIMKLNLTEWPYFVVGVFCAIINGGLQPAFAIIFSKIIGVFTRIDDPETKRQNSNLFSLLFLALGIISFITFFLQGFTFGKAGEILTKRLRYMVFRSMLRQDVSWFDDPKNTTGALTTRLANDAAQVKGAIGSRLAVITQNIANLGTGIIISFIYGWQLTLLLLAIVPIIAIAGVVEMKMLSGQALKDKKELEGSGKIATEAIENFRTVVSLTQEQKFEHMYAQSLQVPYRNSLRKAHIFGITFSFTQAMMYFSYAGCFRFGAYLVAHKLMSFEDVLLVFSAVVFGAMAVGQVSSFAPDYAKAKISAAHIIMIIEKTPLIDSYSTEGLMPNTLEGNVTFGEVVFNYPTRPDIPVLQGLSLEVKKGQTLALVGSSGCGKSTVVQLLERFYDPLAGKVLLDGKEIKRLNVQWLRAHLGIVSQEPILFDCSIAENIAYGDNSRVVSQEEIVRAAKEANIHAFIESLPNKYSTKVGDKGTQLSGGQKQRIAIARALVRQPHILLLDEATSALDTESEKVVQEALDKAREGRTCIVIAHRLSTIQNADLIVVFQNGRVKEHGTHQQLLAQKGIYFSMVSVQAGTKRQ
The experiment in a line: P-gp substrate test. Particulars: net flux = Efflux Ratio in MDR1 expressing cells / Efflux Ratio in parent LLC-PK1 cells. The format is in vitro ADME. On the procedure: • 1. Cell line: • a. MDR/LLC-PK1 (Becton Dickinson) • b. LLC-PK1 (Becton Dickinson) • 2. Reference substrates: • a Digoxin (2 μM)
1. […] After incubation for designed time at 37° C., an aliquot (50 μL) of transport buffer in the donor and receiver side were collected. Assay was performed by duplicate or triplicate. 3. Reference substrate and the present invention in the aliquot was quantified by LC/MS/MS.
Pc(cm/sec)−Permeated amount (pmol)/area of cell membrane (cm2)/initial concentration (nM)/incubation time (sec)
The efflux ratio was calculated using the following equation:
Efflux Ratio=Basolateral-to-Apical Pe/Apical-to-Basolateral Pe
The net flux was calculated using the following equation
Net flux=Efflux Ratio in MDK1 expressing cells/Efflux Ratio in parent cells

A further data set addresses T2, P-gp (Mus musculus, UniProt P21447).
T2 construct: from tissue; host or cells: living mice (brain/plasma distribution), wild type versus mdr1a (−/−)
The experiment in a line: P-gp substrate test using mdr1a (−/−) B6 mice. The format is in vivo. The conditions noted are these: Kp in KO mouse (mdr1a (−/−) B6) / Kp in Wild mouse; for Kp at 2 h: mdr1a (−/−) B6 (KO) and C57BL/6J (wild), mouse, brain / plasma, po, 2 mg/kg, read-out: Kp ratio (2 mg/kg, po, 2 hr). On the procedure:
Animal: mdrla (−/−) B6 mice (KO mouse) or […] mice (Wild mouse)
1. Animals may be fed prior to dosing of the compounds of the present invention. 2. The compounds of the present invention were dosed to three animals for each time point and blood and brain samples were removed at selected time points (e.g. 15 min, 30 min, 1 hr, 2 hr, 4 hr, 6 hr, 8 hr, or 24 hr) after dosing. Blood (0.3-0.7 mL) was collected via trunk blood collection with syringe containing anticoagulants (EDTA and heparin). Blood and tissue (e.g. brain) samples were immediately placed on melting ice. 3. Blood samples were centrifuged (1780×g for 10 minutes) for cell removal to obtain plasma. Then, plasma samples were transferred to a clean tube and stored in a −70° C. freezer until analysis. 4. Tissue (e.g. brain) samples were homogenized at a 1:3 ratio of tissue weight to ml of stilled water and transferred to a clean tube and stored in a −70° C. freezer until analysis. 5. Plasma and tissue (e.g. brain) samples were prepared using protein prceipitation and analyzed by LC/MS/MS. The analytical method was calibrated by including a standard curve constructed with blank plasma or brain samples and known quantities of analyte. Quality control samples were included to monitor the accuracy and precision of the methodology. 6. Plasma and brain concentration values (ng/mL and ng/g) were introduced into an appropriate tool used for calculating the pharmacokinetic parameters. A common platform was the WinNonlin (Registered trademark) pharmacokinetic software modeling program.
Kp: Tissue to Plasma concentration ratio Kp ratio=Kp in KO mouse/Kp in Wild mouse KO/Wild ratio of AUC Tissue/AUC Plasma ={AUC Tissue/AUC Plasma (KO mouse)}/{AUC Tissue/AUC Plasma (Wild mouse)}

Data set [3] in a line: Pharmacokinetic study (oral absorption). The format is in vivo. Particulars: bioavailability from AUCs of oral and intravenous administration; mouse or rat. On the procedure: (1l) Animal: mouse or rat (2) Breeding conditions: mouse or rat was allowed free access to the tap water and the solid food. (3) Dose and grouping: orally or intravenously administered at a predetermined dose: grouping was as follows (Dose depends on the compound) Oral administration: 1 to 30 mg/kg (n=2 to 3) Intravenous administration: 0.5 to 10 mg/kg (n=2 to 3) (4) Dosing formulation: for oral administration, in a solution or a suspension state; for intravenous administration, in a solubilized state (5) Dosing method: in oral administration, forcedly administer using a syringe attached a flexible feeding tube; in intravenous administration, administer from caudal vein using a syringe attached with a needle. (6) Evaluation items: blood was collected at the scheduled time, and the plasma concentration of the compound of the present invention was measured by LC/MS/MS (7) Statistical analysis: regarding the transition of the plasma concentration of the compound of the present invention, the area under the plasma concentration-time curve (AUC) was calculated by non-linear least squares program WinNonlin (Registered trademark), and the bioavailability (BA) of the compound of the present invention was calculated from the AUCs of the oral administration group and intravenous administration group

T2 sequence (P21447 whole entry): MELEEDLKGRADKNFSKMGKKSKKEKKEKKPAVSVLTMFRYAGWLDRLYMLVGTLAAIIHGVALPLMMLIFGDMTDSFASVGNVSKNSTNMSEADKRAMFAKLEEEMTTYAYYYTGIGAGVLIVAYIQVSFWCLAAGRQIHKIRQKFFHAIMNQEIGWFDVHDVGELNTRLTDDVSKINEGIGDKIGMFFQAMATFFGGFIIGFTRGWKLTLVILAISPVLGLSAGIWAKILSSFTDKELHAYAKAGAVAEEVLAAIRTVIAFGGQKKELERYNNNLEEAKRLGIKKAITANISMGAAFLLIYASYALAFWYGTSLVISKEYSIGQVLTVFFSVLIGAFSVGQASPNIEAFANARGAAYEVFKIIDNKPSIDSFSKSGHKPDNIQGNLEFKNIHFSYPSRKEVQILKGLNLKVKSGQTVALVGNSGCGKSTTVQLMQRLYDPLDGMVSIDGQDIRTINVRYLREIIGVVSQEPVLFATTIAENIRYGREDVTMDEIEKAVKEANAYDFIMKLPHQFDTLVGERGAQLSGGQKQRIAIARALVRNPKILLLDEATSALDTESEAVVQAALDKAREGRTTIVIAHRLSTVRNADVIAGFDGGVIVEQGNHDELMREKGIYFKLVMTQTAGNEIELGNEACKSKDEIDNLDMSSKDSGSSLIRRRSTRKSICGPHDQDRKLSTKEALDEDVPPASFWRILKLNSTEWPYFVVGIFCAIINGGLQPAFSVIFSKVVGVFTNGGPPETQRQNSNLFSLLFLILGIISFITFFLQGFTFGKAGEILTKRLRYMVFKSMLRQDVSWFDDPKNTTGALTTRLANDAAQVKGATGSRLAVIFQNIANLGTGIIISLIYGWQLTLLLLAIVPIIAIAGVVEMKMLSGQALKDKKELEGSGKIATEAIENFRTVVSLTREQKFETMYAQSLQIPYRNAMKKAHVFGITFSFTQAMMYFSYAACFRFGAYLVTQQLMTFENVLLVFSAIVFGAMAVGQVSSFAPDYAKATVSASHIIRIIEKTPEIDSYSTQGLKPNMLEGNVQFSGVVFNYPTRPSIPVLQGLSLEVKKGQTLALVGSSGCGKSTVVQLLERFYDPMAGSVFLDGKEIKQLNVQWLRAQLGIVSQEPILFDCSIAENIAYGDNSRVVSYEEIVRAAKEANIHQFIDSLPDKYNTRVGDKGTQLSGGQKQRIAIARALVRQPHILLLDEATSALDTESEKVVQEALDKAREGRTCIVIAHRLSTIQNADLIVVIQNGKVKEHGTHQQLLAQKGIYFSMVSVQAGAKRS

Regarding `C[C@H]1SC(N)=N[C@](C)(c2nc(NC(=O)c3ccc(C#N)cn3)ccc2F)[C@H]1F` [Compound I-1], in data set [1], the Kp at 0.5 h is 2. The “ER ratio (Cell: MDR1/LLC-PK1)” value in data set [2] is on record as 1.2. Also, the Kp at 2 h on P-gp came out at 4.12. The same molecule showed a BA_% in data set [3] of 66.7%.
As to `C[C@H]1SC(N)=N[C@](C)(c2nc(NC(=O)c3ccc(F)cn3)ccc2F)[C@H]1F` [Compound I-2], the Kp at 0.5 h in data set [1] stood at 2.9. For the same molecule, the Kp at 2 h on P-gp is 0.959. The molecule also registered a BA_% in data set [3] of 51.3%.
On to `C[C@H]1SC(N)=N[C@](C)(c2nc(NC(=O)c3cnc(OCF)cn3)ccc2F)[C@H]1F` [Compound I-3], for which, in data set [1], the Kp at 0.5 h is 2.3. Further, on P-gp, the Kp at 2 h came to 5.16. In data set [3], this molecule showed a BA_% of 38.8%.
`C[C@]1(c2nc(NC(=O)c3ccc(C#N)cn3)ccc2F)N=C(N)S[C@H](CF)[C@@H]1F` [Compound I-4]: the Kp at 0.5 h in data set [1] was found to be 2. Moreover, on P-gp, the Kp at 2 h was determined as 2.92. In data set [3], this molecule came in with a BA_% of 83.2%.
The like results for `C[C@@]1(c2cc(NC(=O)c3ccc(C#N)cn3)ccc2F)C[C@@](C)(C(F)(F)F)OC(N)=N1` [Compound I-7] were, in that order, 2, 4.21 and 32.8%.
In the case of `COc1cnc(C(=O)Nc2ccc(F)c([C@@]3(C)N=C(N)S[C@H](C)[C@@H]3F)c2)cn1` [Compound I-8], in data set [1], the Kp at 0.5 h was found to be 1.8. Further, in data set [2], the “ER ratio (Cell: MDR1/LLC-PK1)” value was 1.3. The Kp at 2 h on P-gp stood at 2.22. In data set [3], this molecule displayed a BA_% of 27.4%.
`C[C@H]1[C@@H](C(F)(F)F)OC(N)=N[C@]1(C)c1cc(NC(=O)c2ccc(C#N)cn2)ccc1F` [Compound I-28]: in data set [2], the “ER ratio (Cell: MDR1/LLC-PK1)” value was 1.2. For the same molecule, the Kp at 2 h at P-gp was 5.41.
Regarding `C[C@H]1[C@@H](C(F)(F)F)OC(N)=N[C@]1(C)c1cc(NC(=O)c2cnc(OCF)cn2)ccc1F` [Compound I-30], the Kp at 0.5 h in data set [1] was 3.2. Besides, the Kp at 2 h at P-gp is 3.63.
Take `C[C@]1(c2cc(NC(=O)c3ccc(C#N)cn3)ccc2F)N=C(N)O[C@H]2[C@@H]1OCC2(F)F` [Compound I-35]: the “ER ratio (Cell: MDR1/LLC-PK1)” value in data set [2] is on record as 2.1. For the same molecule, at P-gp, the Kp at 2 h was found to be 5.15.
`CC(F)(F)[C@H]1OC(N)=N[C@](C)(c2cc(NC(=O)c3ccc(C#N)cn3)ccc2F)[C@H]1F` [Compound I-40]: in data set [1], the Kp at 0.5 h is 0.74. Also, the “ER ratio (Cell: MDR1/LLC-PK1)” value in data set [2] amounted to 1.1. Moreover, the Kp at 2 h on P-gp came to 6.97. The same molecule yielded a BA_% in data set [3] of 36.2%.
As for `C[C@H]1[C@@H](C(F)(F)F)OC(N)=N[C@]1(C)c1cc(NC(=O)c2cnc(OCF)cn2)ccc1F` [Compound I-41], the “Kp Brain” value in data set [1] (intravenous 0.5 mg/mL/kg) is listed as 1.9. Moreover, the “ER ratio (Cell: MDR1/LLC-PK1)” value in data set [2] is 1.4. In addition, at P-gp, the “Kp ratio (2 mg/kg, po, 2 hr)” value amounted to 2.66. Moreover, the BA_% in data set [3] worked out at 35.2%.
With `COc1cnc(C(=O)Nc2ccc(F)c([C@@]3(C)N=C(N)O[C@H](C(C)(F)F)[C@@H]3F)c2)cn1` [Compound I-42], the Kp at 0.5 h in data set [1] was 2. The “ER ratio (Cell: MDR1/LLC-PK1)” value in data set [2] was found to be 1.5. On P-gp, the Kp at 2 h worked out at 2.07. Further, the BA_% in data set [3] worked out at 28.7%.
As for `C[C@H]1SC(N)=N[C@](C)(c2cc(NC(=O)c3cnc(OCC(F)(F)F)cn3)ccc2F)[C@H]1F` [Compound I-46], the Kp at 0.5 h in data set [1] was 1.9. The “ER ratio (Cell: MDR1/LLC-PK1)” value in data set [2] is on record as 1.5. Besides, on P-gp, the Kp at 2 h was found to be 6.13. The molecule further yielded a BA_% in data set [3] of 22.2%.
In the case of `C[C@H]1SC(N)=N[C@](C)(c2cc(NC(=O)c3cnc(OC(F)F)cn3)ccc2F)[C@H]1F` [Compound I-47], in data set [1], the Kp at 0.5 h is 1.1. Also, in data set [2], the “ER ratio (Cell: MDR1/LLC-PK1)” value came to 1.3. Further, the Kp at 2 h on P-gp was 2.12.
The corresponding values for `C[C@H]1SC(N)=N[C@](C)(c2cc(NC(=O)c3cnc(OCC(F)F)cn3)ccc2F)[C@H]1F` [Compound I-48] are 2.1, 1.1 and 5.57.
In the case of `C[C@H]1SC(N)=N[C@](C)(c2cc(NC(=O)c3ccc(F)cn3)ccc2F)[C@H]1F` [Compound I-116], the Kp at 0.5 h in data set [1] is 1.8. In data set [2], the “ER ratio (Cell: MDR1/LLC-PK1)” value is 1.1. At P-gp, the Kp at 2 h came to 4.54. Also, the BA_% in data set [3] came out at 78.7%.
